# According to ChEMBL document CHEMBL1201861, “Genomics of Drug Sensitity in Cancer screening data, Wellcome Trust Sanger Institute”:
# Legend:
# Assay in all cases: cells
# [1] = test system: COLO-741; format: functional, cell-based, Homo sapiens; details: Homo sapiens, COLO-741
# Description: SANGER: Inhibition of human COLO-741 cell growth in a cell viability assay.
# [2] = test system: COR-L23; format: functional, cell-based, Homo sapiens; details: Homo sapiens, COR-L23;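 further: cell viability assay measuring how strongly compounds suppress growth of COR-L23 cells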
# Description: SANGER: Inhibition of human COR-L23 cell growth in a cell viability assay.
# [3] = test system: Ca-Ski; format: functional, cell-based; details: Homo sapiens;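 further: cell viability assay measuring inhibition of Ca-Ski cell growth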
# Description: SANGER: Inhibition of human Ca-Ski cell growth in a cell viability assay.
# [4] = test system: D-392MG; format: functional, cell-based, Homo sapiens; details: Homo sapiens, D-392MG
# [5] = test system: D-502MG; format: functional, cell-based, Homo sapiens; details: Homo sapiens, D-502MG
# Description: SANGER: Inhibition of human D-502MG cell growth in a cell viability assay.
# [6] = test system: EW-24; format: functional, cell-based; details: Homo sapiens;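 further: human EW-24 cancer cell line, growth inhibition read out via a cell viability assay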
# Description: SANGER: Inhibition of human EW-24 cell growth in a cell viability assay.
# [7] = test system: GI-ME-N; format: functional, cell-based, Homo sapiens; details: Homo sapiens, GI-ME-N;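 further: growth inhibition of human GI-ME-N cells, read out with a cell viability assay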
# Description: SANGER: Inhibition of human GI-ME-N cell growth in a cell viability assay.
# [8] = test system: GMS-10; format: functional, cell-based, Homo sapiens; details: Homo sapiens, GMS-10;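 further: growth inhibition of GMS-10 cells, read out as cell viability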
# Description: SANGER: Inhibition of human GMS-10 cell growth in a cell viability assay.
# [9] = test system: GT3TKB; format: functional, cell-based, Homo sapiens; details: Homo sapiens, GT3TKB;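 further: growth inhibition of the cell line, read out with a cell viability assay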
# Description: SANGER: Inhibition of human GT3TKB cell growth in a cell viability assay.
# [10] = test system: HCC1569; format: functional, cell-based, Homo sapiens; details: Homo sapiens, HCC1569;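 further: growth inhibition of human HCC1569 cells, read out with a cell viability assay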
# Description: SANGER: Inhibition of human HCC1569 cell growth in a cell viability assay.
# [11] = test system: HCC70; format: functional, cell-based, Homo sapiens; details: Homo sapiens, HCC70;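 further: cell viability assay measuring how strongly the compound suppresses proliferation of HCC70 cells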
# Description: SANGER: Inhibition of human HCC70 cell growth in a cell viability assay.
# [12] = test system: HEC-1; format: functional, cell-based, Homo sapiens; details: Homo sapiens, HEC-1;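 further: growth inhibition of the cell line, read out with a cell viability assay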
# Description: SANGER: Inhibition of human HEC-1 cell growth in a cell viability assay.
# [13] = test system: HT-1080; format: functional, cell-based, Homo sapiens; details: Homo sapiens, HT-1080
# Description: SANGER: Inhibition of human HT-1080 cell growth in a cell viability assay.
# [14] = test system: HT1197; format: functional, cell-based, Homo sapiens, HT-1197; details: Homo sapiens, HT1197
# Description: SANGER: Inhibition of human HT-1197 cell growth in a cell viability assay.
# [15] = test system: Hs-578T; format: functional, cell-based, Homo sapiens; details: Homo sapiens, Hs-578T
# Description: SANGER: Inhibition of human Hs-578-T cell growth in a cell viability assay.
# [16] = test system: JVM-3; format: functional, cell-based; details: Homo sapiens;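 further: growth inhibition of human JVM-3 cells, read out with a cell viability assay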
# Description: SANGER: Inhibition of human JVM-3 cell growth in a cell viability assay.
# [17] = test system: KP-N-YN; format: functional, cell-based; details: Homo sapiens;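 further: growth inhibition of KP-N-YN cells, read out with a cell viability assay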
# Description: SANGER: Inhibition of human KP-N-YN cell growth in a cell viability assay.
# [18] = test system: KYSE-140; format: functional, cell-based, Homo sapiens; details: Homo sapiens, KYSE-140;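 further: cell viability assay measuring growth inhibition in human KYSE-140 cells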
# Description: SANGER: Inhibition of human KYSE-140 cell growth in a cell viability assay.
# [19] = test system: KYSE-150 cell line; format: functional, cell-based, Homo sapiens; details: Homo sapiens, KYSE-150;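 further: growth inhibition of human KYSE-150 cells, read out with a cell viability assay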
# Description: SANGER: Inhibition of human KYSE-150 cell growth in a cell viability assay.
# [20] = test system: KYSE-450; format: functional, cell-based; details: Homo sapiens;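 further: cell growth inhibition measured by a viability assay in human KYSE-450 cells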
# Description: SANGER: Inhibition of human KYSE-450 cell growth in a cell viability assay.
# [21] = test system: L-363; format: functional, cell-based; details: Homo sapiens
# Description: SANGER: Inhibition of human L-363 cell growth in a cell viability assay.
# [22] = test system: LAN-6; format: functional, cell-based, Homo sapiens; details: Homo sapiens, LAN-6;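 further: growth inhibition of LAN-6 cells, determined with a cell viability assay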
# Description: SANGER: Inhibition of human LAN-6 cell growth in a cell viability assay.
# [23] = test system: LU-134-A; format: functional, cell-based; details: Homo sapiens
# Description: SANGER: Inhibition of human LU-134-A cell growth in a cell viability assay.
# [24] = test system: LoVo; format: functional, cell-based; details: Homo sapiens;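 further: growth inhibition of human LoVo cells, read out with a cell viability assay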
# Description: SANGER: Inhibition of human LoVo cell growth in a cell viability assay.
# [25] = test system: MDA-MB-361; format: functional, cell-based, Homo sapiens; details: Homo sapiens, MDA-MB-361
# [26] = test system: MOLT-4; format: functional, cell-based; details: Homo sapiens;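 further: growth inhibition of MOLT-4 cells, determined with a cell viability readout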
# Description: SANGER: Inhibition of human MOLT-4 cell growth in a cell viability assay.
# [27] = test system: MV4-11; format: functional, cell-based, MV-4-11; details: Homo sapiens;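 further: cell viability readout measuring growth inhibition of human MV-4-11 cells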
# Description: SANGER: Inhibition of human MV-4-11 cell growth in a cell viability assay.
# [28] = test system: MZ7-mel; format: functional, cell-based, Homo sapiens; details: Homo sapiens, MZ7-mel;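 further: growth inhibition of human MZ7-mel cells, measured by a cell viability assay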
# Description: SANGER: Inhibition of human MZ7-mel cell growth in a cell viability assay.
# [29] = test system: NCI-H2087; format: functional, cell-based, Homo sapiens; details: Homo sapiens, NCI-H2087;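 further: growth inhibition determined with a cell viability readout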
# Description: SANGER: Inhibition of human NCI-H2087 cell growth in a cell viability assay.
# [30] = test system: NCI-H2347; format: functional, cell-based, Homo sapiens; details: Homo sapiens, NCI-H2347;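 further: growth inhibition of the cell line, read out with a cell viability assay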
# Description: SANGER: Inhibition of human NCI-H2347 cell growth in a cell viability assay.
# [31] = test system: NCI-H2405; format: functional, cell-based, Homo sapiens; details: Homo sapiens, NCI-H2405;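 further: growth inhibition of the human cell line, read out with a cell viability assay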
# Description: SANGER: Inhibition of human NCI-H2405 cell growth in a cell viability assay.
# [32] = test system: NCI-H358; format: functional, cell-based, Homo sapiens; details: Homo sapiens, NCI-H358;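 further: growth inhibition of NCI-H358 human cells, read out with a cell viability assay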
# Description: SANGER: Inhibition of human NCI-H358 cell growth in a cell viability assay.
# [33] = test system: NCI-H810; format: functional, cell-based, Homo sapiens; details: Homo sapiens, NCI-H810;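 further: IC50 reflects inhibition of cancer cell line growth, read out with a cell viability assay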
# Description: SANGER: Inhibition of human NCI-H810 cell growth in a cell viability assay.
# [34] = test system: OE19; format: functional, cell-based, Homo sapiens; details: Homo sapiens, OE19;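 further: growth inhibition of OE19 cells, measured through a cell viability read-out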
# Description: SANGER: Inhibition of human OE19 cell growth in a cell viability assay.
# [35] = test system: ONS-76; format: functional, cell-based, Homo sapiens; details: Homo sapiens, ONS-76;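 further: growth inhibition of human ONS-76 cells, read out with a cell viability assay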
# Description: SANGER: Inhibition of human ONS-76 cell growth in a cell viability assay.
# [36] = test system: RCC10RGB; format: functional, cell-based, Homo sapiens; details: Homo sapiens, RCC10RGB;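 further: growth inhibition of human RCC10RGB cells, read out by a cell viability assay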
# Description: SANGER: Inhibition of human RCC10RGB cell growth in a cell viability assay.
# [37] = test system: RCM-1; format: functional, cell-based, Homo sapiens; details: Homo sapiens, RCM-1;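 further: growth inhibition of the RCM-1 line, determined with a cell viability readout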
# Description: SANGER: Inhibition of human RCM-1 cell growth in a cell viability assay.
# [38] = test system: RS4-11; format: functional, cell-based; details: Homo sapiens;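 further: growth inhibition of RS4-11 cells, read out by a cell viability assay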
# Description: SANGER: Inhibition of human RS4-11 cell growth in a cell viability assay.
# [39] = test system: RXF 393; format: functional, cell-based; details: Homo sapiens;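 further: growth inhibition of human RXF 393 cells, read out with a cell viability assay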
# [40] = test system: SCC-25; format: functional, cell-based, Homo sapiens; details: Homo sapiens, SCC-25;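 further: growth inhibition of SCC-25 cells, measured with a cell viability assay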
# [41] = test system: SCC-9; format: functional, cell-based, Homo sapiens; details: Homo sapiens, SCC-9;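 further: Read-out is a cell viability assay, with values giving inhibition of cell growth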
# [42] = test system: SK-LU-1; format: functional, cell-based, Homo sapiens; details: Homo sapiens, SK-LU-1;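 further: cell viability assay measuring growth inhibition of human SK-LU-1 cells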
# Description: SANGER: Inhibition of human SK-LU-1 cell growth in a cell viability assay.
# [43] = test system: SK-MEL3; format: functional, cell-based, Homo sapiens, SK-MEL-3; details: Homo sapiens, SK-MEL3;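 further: growth inhibition of human SK-MEL-3 cells, read out with a cell viability assay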
# Description: SANGER: Inhibition of human SK-MEL-3 cell growth in a cell viability assay.
# [44] = test system: SW780; format: functional, cell-based, Homo sapiens; details: Homo sapiens, SW780;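 further: growth inhibition of the cells, read out with a cell viability assay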
# Description: SANGER: Inhibition of human SW780 cell growth in a cell viability assay.
# [45] = test system: ALL-PO; format: functional, cell-based; details: Homo sapiens;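 further: growth inhibition of ALL-PO cells, read out by a cell viability assay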
# Description: SANGER: Inhibition of human ALL-PO cell growth in a cell viability assay.
# [46] = test system: BT-474; format: functional, cell-based, Homo sapiens; details: Homo sapiens, BT-474
# Description: SANGER: Inhibition of human BT-474 cell growth in a cell viability assay.
# [47] = test system: BV-173; format: functional, cell-based; details: Homo sapiens
# Description: SANGER: Inhibition of human BV-173 cell growth in a cell viability assay.
# [48] = test system: TGW; format: functional, cell-based; details: Homo sapiens;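 further: growth inhibition of human TGW cells, read out with a cell viability assay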
# Description: SANGER: Inhibition of human TGW cell growth in a cell viability assay.
# [49] = test system: TYK-nu; format: functional, cell-based, Homo sapiens; details: Homo sapiens, TYK-nu;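 further: growth inhibition of human TYK-nu cells, read out by a cell viability assay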
# Description: SANGER: Inhibition of human TYK-nu cell growth in a cell viability assay.
# [50] = test system: UACC-893; format: functional, cell-based, Homo sapiens; details: Homo sapiens, UACC-893
# Description: SANGER: Inhibition of human UACC-893 cell growth in a cell viability assay.
# [51] = test system: WM-115; format: functional, cell-based, Homo sapiens; details: Homo sapiens, WM-115
# Description: SANGER: Inhibition of human WM-115 cell growth in a cell viability assay.
# [52] = test system: CCRF-CEM; format: functional, cell-based; details: Homo sapiens;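 further: inhibition of CCRF-CEM cell growth, measured by a cell viability assay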
# Description: SANGER: Inhibition of human CCRF-CEM cell growth in a cell viability assay.
compound,measurement,setting,value
Cc1ccc(Nc2nccc(N(C)c3ccc4c(C)n(C)nc4c3)n2)cc1S(N)(=O)=O [PAZOPANIB],IC50,[1],> 8 µM
same,IC50,[2],> 8 µM
same,IC50,[3],> 8 µM
same,IC50,[4],> 8 µM
same,IC50,[5],7.78 µM
same,IC50,[6],> 8 µM
same,IC50,[7],> 8 µM
same,IC50,[8],> 8 µM
same,IC50,[9],> 8 µM
same,IC50,[10],> 8 µM
same,IC50,[11],> 8 µM
same,IC50,[12],> 8 µM
same,IC50,[13],> 8 µM
same,IC50,[14],> 8 µM
same,IC50,[15],> 8 µM
same,IC50,[16],> 8 µM
same,IC50,[17],> 8 µM
same,IC50,[18],> 8 µM
same,IC50,[19],> 8 µM
same,IC50,[20],> 8 µM
same,IC50,[21],> 8 µM
same,IC50,[22],> 8 µM
same,IC50,[23],> 8 µM
same,IC50,[24],> 8 µM
same,IC50,[25],> 8 µM
same,IC50,[26],> 8 µM
same,IC50,[27],1.35 µM
same,IC50,[28],> 8 µM
same,IC50,[29],> 8 µM
same,IC50,[30],> 8 µM
same,IC50,[31],> 8 µM
same,IC50,[32],> 8 µM
same,IC50,[33],6.31 µM
same,IC50,[34],> 8 µM
same,IC50,[35],> 8 µM
same,IC50,[36],> 8 µM
same,IC50,[37],> 8 µM
same,IC50,[38],> 8 µM
same,IC50,[39],> 8 µM
same,IC50,[40],> 8 µM
same,IC50,[41],> 8 µM
same,IC50,[42],3.19 µM
same,IC50,[43],> 8 µM
same,IC50,[44],> 8 µM
same,IC50,[45],> 8 µM
same,IC50,[46],> 8 µM
same,IC50,[47],> 8 µM
same,IC50,[48],> 8 µM
same,IC50,[49],> 8 µM
same,IC50,[50],> 8 µM
same,IC50,[51],5.76 µM
same,IC50,[52],> 8 µM
Cn1cncc1[C@@](N)(c1ccc(Cl)cc1)c1ccc2c(c1)c(-c1cccc(Cl)c1)cc(=O)n2C [TIPIFARNIB],IC50,[1],6.55 µM
same,IC50,[2],13.8 µM
same,IC50,[3],9.17 µM
same,IC50,[4],> 16 µM
same,IC50,[5],> 16 µM
same,IC50,[6],> 16 µM
same,IC50,[7],> 16 µM
same,IC50,[8],> 16 µM
same,IC50,[9],3.01 µM
same,IC50,[10],2.58 µM
same,IC50,[11],1.05 µM
same,IC50,[12],7.15 µM
same,IC50,[13],10.3 µM
same,IC50,[14],11.7 µM
same,IC50,[15],> 16 µM
same,IC50,[16],> 16 µM
same,IC50,[17],> 16 µM
same,IC50,[18],1.11 µM
same,IC50,[19],6.2 µM
same,IC50,[20],0.729 µM
same,IC50,[21],> 16 µM
same,IC50,[22],14.1 µM
same,IC50,[23],> 16 µM
same,IC50,[24],0.241 µM
same,IC50,[25],2.11 µM
same,IC50,[26],4.91 µM
same,IC50,[27],0.733 µM
same,IC50,[28],0.722 µM
same,IC50,[29],2.28 µM
same,IC50,[30],> 16 µM
same,IC50,[31],9.6 µM
same,IC50,[32],4.92 µM
same,IC50,[33],1.63 µM
same,IC50,[34],5.75 µM
same,IC50,[35],1.47 µM
same,IC50,[36],8.49 µM
same,IC50,[37],> 16 µM
same,IC50,[38],1.94 µM
same,IC50,[39],> 16 µM
same,IC50,[40],5.91 µM
same,IC50,[41],> 16 µM
same,IC50,[42],3.55 µM
same,IC50,[43],4.98 µM
same,IC50,[44],> 16 µM
same,IC50,[45],0.555 µM
same,IC50,[46],> 16 µM
same,IC50,[47],2.38 µM
same,IC50,[48],> 16 µM
same,IC50,[49],> 16 µM
same,IC50,[50],> 16 µM
same,IC50,[51],> 16 µM
same,IC50,[52],1.64 µM
